Patent publication US9353090B2, “Heterocyclic carboxylic acids as activators of soluble guanylate cyclase” (Boehringer Ingelheim International GmbH, priority 2014, dated 2016)
pEC50: −log10 of the molar value. Converted amounts (≈) assume the structure as drawn.

What was measured:
[1] = molecular target: human soluble guanylate cyclase alpha 1 and beta 1 subunits (sGC) (Homo sapiens (Human), UniProt Q02108+Q02153); experiment: sGC cellular activator assay (cGMP, HTRF), in the presence and absence of 50% human serum; type: cell-based; settings: CHO cells stably expressing human sGC alpha 1/beta 1, preincubated with 40 microM ODQ; cGMP by HTRF; Table 2 does not state whether with or without 50% human serum
Summary of the method: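 First, CHO-sGC (human α1β1) cells get 1 h ODQ at 40 microM with IBMX and 0.1% BSA. Finally, cGMP is quantified by HTRF and EC50 computed.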

[2] = Human liver microsome (HLM) metabolic stability assay; type: in vitro ADME; settings: human liver microsomes
Summary of the method: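 Remaining parent measured by LC/MS/MS (ESI, MRM) at 5, 15, 30 and 60 min relative to 0 min. Incubation: 1 uM compound, HLMs, NADPH-started, 37° C., 60 min total, single replicate. Slope of ln(% remaining) gives t1/2 = 0.693/slope, then CLint, CLh and % Qh.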

[3] = physchem; settings: kinetic from dmso stock
[4] = pH 2.2, aqueous buffer, Solubility (pH 2.2)
[5] = pH 4.5, aqueous buffer, Solubility (pH 4.5)
[6] = pH 6.8, aqueous buffer, Solubility (pH 6.8)

Chain of human soluble guanylate cyclase alpha 1 and beta 1 subunits (sGC) (Q02108 whole entry partner): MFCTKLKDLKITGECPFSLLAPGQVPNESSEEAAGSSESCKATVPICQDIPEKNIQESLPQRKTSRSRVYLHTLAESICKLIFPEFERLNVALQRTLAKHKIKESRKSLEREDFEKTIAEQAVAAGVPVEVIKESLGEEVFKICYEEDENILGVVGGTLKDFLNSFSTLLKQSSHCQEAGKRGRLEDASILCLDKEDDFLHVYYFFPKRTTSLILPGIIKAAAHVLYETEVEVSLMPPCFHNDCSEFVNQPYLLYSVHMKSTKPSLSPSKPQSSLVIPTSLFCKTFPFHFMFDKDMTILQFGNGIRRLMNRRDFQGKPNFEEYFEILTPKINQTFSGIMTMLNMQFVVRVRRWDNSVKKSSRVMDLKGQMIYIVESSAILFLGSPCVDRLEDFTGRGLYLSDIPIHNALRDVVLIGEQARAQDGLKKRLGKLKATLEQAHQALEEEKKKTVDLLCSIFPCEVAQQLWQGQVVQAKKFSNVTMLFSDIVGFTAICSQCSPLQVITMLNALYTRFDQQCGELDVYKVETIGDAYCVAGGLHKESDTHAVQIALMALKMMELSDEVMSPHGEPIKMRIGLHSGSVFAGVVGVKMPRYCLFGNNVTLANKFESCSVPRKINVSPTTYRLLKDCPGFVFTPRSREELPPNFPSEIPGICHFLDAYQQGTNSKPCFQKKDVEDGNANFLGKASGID
Chain of human soluble guanylate cyclase alpha 1 and beta 1 subunits (sGC) (Q02153 whole entry): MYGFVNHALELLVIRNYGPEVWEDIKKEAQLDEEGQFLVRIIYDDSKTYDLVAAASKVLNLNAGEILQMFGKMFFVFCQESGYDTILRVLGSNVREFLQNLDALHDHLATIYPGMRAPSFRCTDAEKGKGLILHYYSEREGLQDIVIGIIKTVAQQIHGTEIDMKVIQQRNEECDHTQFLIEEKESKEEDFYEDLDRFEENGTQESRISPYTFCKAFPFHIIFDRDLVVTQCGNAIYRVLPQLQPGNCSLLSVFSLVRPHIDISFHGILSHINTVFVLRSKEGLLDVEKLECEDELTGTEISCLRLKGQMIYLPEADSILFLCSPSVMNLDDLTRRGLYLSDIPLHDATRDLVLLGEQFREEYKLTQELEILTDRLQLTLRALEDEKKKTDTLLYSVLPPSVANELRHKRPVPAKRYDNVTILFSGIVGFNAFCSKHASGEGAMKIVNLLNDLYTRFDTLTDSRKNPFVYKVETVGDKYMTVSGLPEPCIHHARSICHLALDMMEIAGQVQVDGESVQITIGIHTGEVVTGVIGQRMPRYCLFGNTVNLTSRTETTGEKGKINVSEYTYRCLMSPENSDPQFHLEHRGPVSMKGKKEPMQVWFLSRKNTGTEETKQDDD

Q: With `Cc1ccc(OCc2cc(C)c3c(c2)CCN(C2CCCOC2)C3)c(-c2csc(N3CC[C@@]4(C(=O)O)C[C@H]4C3)n2)c1` (mixture of isomers) [Compound 121] as the molecule, how does the pEC50 [1] read?
A: 8.00

Q: What about the “Metabolic stability (Qh %), % hepatic blood flow” value (“Metabolic stability (Qh %)” for short) [2] of the same molecule?
A: <24%

Q: And the solubility at 24 h [3, 4]?
A: 110 µg/mL

Q: What about the solubility at 24 h [3, 5] of the same molecule?
A: 14 µg/mL

Q: And the solubility at 24 h [3, 6]?
A: 0.69 µg/mL

Q: With `Cc1ccc(OCc2cnc3c(c2)CCN(C2CCOCC2)C3)c(-c2csc(N3CC[C@@]4(C(=O)O)C[C@H]4C3)n2)c1` [Compound 194] as the molecule, how does the pEC50 [1] read?
A: 7.20

Q: And the “Metabolic stability (Qh %)” value [2]?
A: <24%

Q: What about the solubility at 24 h [3, 4] of the same molecule?
A: 140 µg/mL (≈ 250 µM)

Q: What about the solubility at 24 h [3, 5] of the same molecule?
A: 70 µg/mL (≈ 125 µM)

Q: And the solubility at 24 h [3, 6]?
A: 57 µg/mL (≈ 102 µM)

Q: With `Cc1cccc(-c2csc(N3C[C@@H]4C[C@]4(C(=O)O)C3)n2)c1OCc1ccc2c(c1)CCN(C1CCOCC1)C2` [Compound 135] as the molecule, how does the pEC50 [1] read?
A: 7.41

Q: What about the “Metabolic stability (Qh %)” value [2] of the same molecule?
A: <24%

Q: What about the solubility at 24 h [3, 4] of the same molecule?
A: 100 µg/mL (≈ 183 µM)

Q: What about the solubility at 24 h [3, 5] of the same molecule?
A: 70 µg/mL (≈ 128 µM)

Q: And the solubility at 24 h [3, 6]?
A: 56 µg/mL (≈ 103 µM)

Q: With `Cc1c(COc2ccccc2-c2cccc(N3CC[C@@]4(C(=O)O)C[C@H]4C3)n2)ccc2c1CCN(C(C)c1ccccn1)C2` (stereo partly drawn) [Compound 306] as the molecule, how does the pEC50 [1] read?
A: 8.52

Q: And the “Metabolic stability (Qh %)” value [2]?
A: 61%

Q: What about the solubility at 24 h [3, 4] of the same molecule?
A: 141 µg/mL (≈ 246 µM)

Q: And the solubility at 24 h [3, 5]?
A: 97.1 µg/mL (≈ 169 µM)

Q: And the solubility at 24 h [3, 6]?
A: 5.2 µg/mL (≈ 9.05 µM)

Q: With `Cc1cc(COc2c(C)cccc2-c2cccc(N3C[C@@H]4C[C@]4(C(=O)O)C3)n2)cc2c1CN(C1CCOC1)CC2` (stereo partly drawn) [Compound 24] as the molecule, how does the pEC50 [1] read?
A: 8.22

Q: And the “Metabolic stability (Qh %)” value [2]?
A: <24%

Q: And the solubility at 24 h [3, 4]?
A: 110 µg/mL (≈ 204 µM)

Q: What about the solubility at 24 h [3, 5] of the same molecule?
A: 98 µg/mL (≈ 182 µM)

Q: What about the solubility at 24 h [3, 6] of the same molecule?
A: 69 µg/mL (≈ 128 µM)

Q: With `COc1cc(COc2c(C)cccc2-c2csc(N3CC[C@@H](C(=O)O)[C@@H](OC)C3)n2)cc2c1CN([C@H]1CCOC1)CC2` [Compound 211] as the molecule, how does the pEC50 [1] read?
A: 7.74

Q: And the “Metabolic stability (Qh %)” value [2]?
A: <24%

Q: What about the solubility at 24 h [3, 4] of the same molecule?
A: 133 µg/mL (≈ 224 µM)

Q: What about the solubility at 24 h [3, 5] of the same molecule?
A: 83.4 µg/mL (≈ 140 µM)

Q: And the solubility at 24 h [3, 6]?
A: 76.5 µg/mL (≈ 129 µM)

Q: With `COCc1cc(COc2c(C)cccc2-c2cccc(N3C[C@@H]4C[C@]4(C(=O)O)[C@H]3COC)n2)cc2c1CN(C1COC1)CC2` [Compound 281] as the molecule, how does the pEC50 [1] read?
A: 6.57

Q: What about the “Metabolic stability (Qh %)” value [2] of the same molecule?
A: 25%

Q: And the solubility at 24 h [3, 4]?
A: 120 µg/mL (≈ 200 µM)

Q: What about the solubility at 24 h [3, 5] of the same molecule?
A: 87.4 µg/mL (≈ 146 µM)

Q: What about the solubility at 24 h [3, 6] of the same molecule?
A: 83.1 µg/mL (≈ 139 µM)

Q: With `CO[C@H]1CN(c2cccc(-c3cccc(C)c3OCc3ccc4c(c3C)CCN(C3CCOCC3)CC4)n2)CC[C@H]1C(=O)O` [Compound 197] as the molecule, how does the pEC50 [1] read?
A: 8.05

Q: And the “Metabolic stability (Qh %)” value [2]?
A: 47%

Q: What about the solubility at 24 h [3, 4] of the same molecule?
A: 110 µg/mL (≈ 183 µM)

Q: What about the solubility at 24 h [3, 5] of the same molecule?
A: 73 µg/mL (≈ 122 µM)

Q: What about the solubility at 24 h [3, 6] of the same molecule?
A: 53 µg/mL (≈ 88.4 µM)

Q: With `CO[C@@H]1CN(c2nc(-c3cccc(C)c3OCc3ccc4c(c3F)CCN(C3COC3)CC4)cs2)CC[C@@H]1C(=O)O` [Compound 267] as the molecule, how does the pEC50 [1] read?
A: 8.15

Q: And the “Metabolic stability (Qh %)” value [2]?
A: <24%

Q: And the solubility at 24 h [3, 4]?
A: 116 µg/mL (≈ 199 µM)

Q: What about the solubility at 24 h [3, 5] of the same molecule?
A: 60.3 µg/mL (≈ 104 µM)

Q: And the solubility at 24 h [3, 6]?
A: 59.6 µg/mL (≈ 102 µM)

Q: What does the source list for `CO[C@H]1CN(c2cccc(-c3cccc(C)c3OCc3ccc4c(c3)CCN(C3CCOCC3)C4)n2)CC[C@H]1C(=O)O` [Compound 64, (3R,4R)-3-Methoxy-6′-{3-methyl-2-[2-(tetrahydro-pyran-4-yl)-1,2,3,4-tetrahydro-isoquinolin-6-ylmethoxy]-phenyl}-3,4,5,6-tetrahydro-2H-[1,2′]bipyridinyl-4-carboxylic acid]?
A: pEC50 [1]: 7.44; Metabolic stability (Qh %), % hepatic blood flow [2]: 29%; solubility at 24 h [3, 4]: 100 µg/mL (≈ 175 µM); solubility at 24 h [3, 5]: 88 µg/mL (≈ 154 µM); solubility at 24 h [3, 6]: 69 µg/mL (≈ 121 µM)

Q: Which results are given for `Cc1cccc(-c2cccc(N3C[C@@H]4C[C@]4(C(=O)O)C3)n2)c1OCc1cc(C#N)c2c(c1)CCN(C1CCOCC1)C2` [Compound 30]?
A: pEC50 [1]: 8.10; Metabolic stability (Qh %), % hepatic blood flow [2]: <24%; solubility at 24 h [3, 4]: 110 µg/mL (≈ 195 µM); solubility at 24 h [3, 5]: 84 µg/mL (≈ 149 µM); solubility at 24 h [3, 6]: 62 µg/mL (≈ 110 µM)

Q: What does the source list for `COC[C@H]1N(c2cccc(-c3cccc(C)c3OCc3cc(C)c4c(c3)OCCN(C3CCOCC3)C4)n2)C[C@@H]2C[C@@]21C(=O)O` [Compound 314]?
A: pEC50 [1]: 6.28; Metabolic stability (Qh %), % hepatic blood flow [2]: <24%; solubility at 24 h [3, 4]: 115 µg/mL (≈ 188 µM); solubility at 24 h [3, 5]: 110 µg/mL (≈ 179 µM); solubility at 24 h [3, 6]: 98.9 µg/mL (≈ 161 µM)

Q: What does the source list for `CO[C@@H]1CN(c2cccc(-c3cccc(C)c3OCc3cc(C)c4c(c3)CN(C3CCOCC3)C4)n2)CC[C@@H]1C(=O)O` [Compound 338]?
A: pEC50 [1]: 7.62; Metabolic stability (Qh %), % hepatic blood flow [2]: <24%; solubility at 24 h [3, 4]: 132 µg/mL (≈ 230 µM); solubility at 24 h [3, 5]: 106 µg/mL (≈ 185 µM); solubility at 24 h [3, 6]: 73.6 µg/mL (≈ 129 µM)

Q: What does the source list for `COc1cc(COc2c(C)cccc2-c2csc(N3CC[C@@H](C(=O)O)[C@@H](OC)C3)n2)cc2c1CN(C1COC1)CC2` [Compound 209]?
A: pEC50 [1]: 7.85; Metabolic stability (Qh %), % hepatic blood flow [2]: <24%; solubility at 24 h [3, 4]: 128 µg/mL (≈ 220 µM); solubility at 24 h [3, 5]: 83.9 µg/mL (≈ 145 µM); solubility at 24 h [3, 6]: 88.7 µg/mL (≈ 153 µM)

Q: Which results are given for `COC[C@H]1N(c2cccc(-c3cccc(C)c3OCc3cc(C)c4c(c3)CCN(C3CCOC3)C4)n2)C[C@@H]2C[C@@]21C(=O)O` (stereo partly drawn) [Compound 50]?
A: pEC50 [1]: 8.10; Metabolic stability (Qh %), % hepatic blood flow [2]: 26%; solubility at 24 h [3, 4]: 120 µg/mL (≈ 206 µM); solubility at 24 h [3, 5]: 96 µg/mL (≈ 164 µM); solubility at 24 h [3, 6]: 77 µg/mL (≈ 132 µM)
